Experiment: gradient 5% acetonitrile 3 min, to 50% in 2 min, to 85% in 15 min, held 3 min, 100 µL/min
Conditions: column: Zorbax Extend-C18 2.1 x 50 mm; eluents: water / acetonitrile, 0.1% formic acid
How it was run: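 Data were gathered over 3 months by HPLC coupled to a quadrupole time-of-flight mass spectrometer, operated in positive and negative ionization mode. Mixtures of ~100 pure standards ran on a Zorbax Extend-C18 column (2.1 × 50 mm, 1.8 μm) at 100 μL/min, with water and acetonitrile each containing 0.1% formic acid and dead and dwell volumes of 40 μL and 900 μL. Retention time was read from adduct peaks picked by computer and checked manually.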

Structure (SMILES)	RP-LC retention time [s]
CCCCCNC(=O)C1CCCN(c2ncc(-c3ccc(F)cc3)cn2)C1 (centres undefined)	1060
Cc1cc(F)ccc1NC(=O)C1CCCN(S(=O)(=O)c2c[nH]c(C(=O)N3CCCCCC3)c2)C1 (centres undefined)	857
CCCc1cc(N2CCN(C(=O)c3ccccc3)CC2)nc2nncn12	608
Cc1[nH]c(C(=O)NC2CCCCC2)c(C)c1S(=O)(=O)N1CCCC1	843
COC(=O)C(C)Sc1ncnc2sc(C)c(C)c12 (centres undefined)	955
CCc1nc(-c2csc(S(=O)(=O)N3CCC(C(=O)N4CCOCC4)CC3)c2)no1	796
Cc1ccccc1Nc1c(-c2ccccc2)nc2ccc(Cl)cn12	869
Cc1ccc(-c2noc(CN3N=NC4C(=O)N(c5ccc(C(C)C)cc5)C(=O)C43)n2)cc1 (centres undefined)	1150
CCCN(CC1CCOC1)C(=O)Nc1cc(F)cc(F)c1 (centres undefined)	871
CNc1ccc2oc(C[C@H]3O[C@@]4(CC[C@H]3C)O[C@H]([C@H](C)C(=O)c3ccc[nH]3)[C@H](C)C[C@H]4C)nc2c1C(=O)O	1030
Cc1ccnc(N2CCC(C(=O)N3CCN(Cc4ccc5c(c4)OCO5)CC3)CC2)n1	590
Cc1ccc2c(Nc3cccc(C(C)C)c3)c(C(=O)N3CCC(C)CC3)cnc2n1	737
O=C(Cn1nc(C2CC2)cc1C(=O)N1CCCC1)Nc1ccc(F)cc1Cl	813
Cc1cc2c(cc1S(=O)(=O)N1CCCC1C(=O)NC1CCCCCC1)OC(C)C(=O)N2 (centres undefined)	834
CC(C)N1C(=O)Cc2ccccc2C1C(=O)N1CCN(c2ccccc2)CC1 (centres undefined)	855
O=C(NCc1cccnc1)C1c2ccccc2C(=O)N(Cc2ccccc2)C12CCCC2 (centres undefined)	649
Cn1c(=O)c2ccnn2c2ccc(C(=O)NC3CCCCC3)cc21	742
CCn1cc(C(=O)Nc2cc(C)ccc2C)c2cccnc21	854
CC(C)NC(=O)c1ccc(OCC2CCCN(C(=O)Cc3ccc(F)cc3)C2)cc1 (centres undefined)	979
CCCCSc1cc(=O)[nH]c(N)n1	700
CC(C)c1ccc(S(=O)(=O)N(CC(=O)N2CCNCC2)CC2CCCO2)cc1 (centres undefined)	602
Cc1noc(C)c1S(=O)(=O)N1CC(CN(C)C)C2(CCOCC2)C1 (centres undefined)	600
O=C(c1ccccc1Cl)N1CC2CC(C1)c1cccc(=O)n1C2 (centres undefined)	596
COc1cc(OC)cc(C(=O)N2CCN(c3cc(C(C)C)n4cnnc4n3)CC2)c1	576

Structure (SMILES)	RP-LC retention time [s]
CC1=C(c2ccccc2)S(=O)(=O)N=C1N1CCCN(C(=O)Nc2ccccc2F)CC1	811
CCC(C)(C)NS(=O)(=O)c1cc(-c2nc(C)cs2)n(CC(=O)N2CCCC2)c1	967
CC(C)(C)c1csc(-c2csc(S(=O)(=O)Nc3ccc(Br)cc3F)c2)n1	1330
O=C(NCc1ccccc1F)C1CCN(C(=O)c2ncn3c2COC(c2ccc(F)cc2)C3)CC1 (centres undefined)	736
c1ccc(COCC2CCN(Cc3ccccc3)CC2)cc1	588
Cc1ccccc1Nc1c(-c2ccc(N3CCOCC3)cc2)nc2cnccn12	822
CC(C)c1cc(C(=O)Nc2ccc(Cl)cc2)nn1C1CCS(=O)(=O)C1 (centres undefined)	936
COc1ccc(NC(=O)N2CCC3(CC2)NC(=O)c2ccc(Cl)cc2N3C)cc1OC	734
Cn1c(=O)n(C2CCN(C(=O)Cc3ccsc3)CC2)c2ncncc21	630
COc1ccc(Oc2cc3c(cc2NS(=O)(=O)c2ccc(OC)c(OC)c2)n(C)c(=O)n3C)cc1	821
CCNC(=O)CN1C(=O)CCSc2ccccc21	664
CCOc1ccccc1C1NC(=O)N(CC(=O)NC2CCCC2)C2=C1C(=O)OC2 (centres undefined)	737
COc1ccc(C2CC(=O)N(c3ccc(C)cc3C)C(=O)C2)cc1	941
COc1ccc(Cn2nc3ccc(S(=O)(=O)N4CCCCCC4)cn3c2=O)cc1	935
CCN1c2cc(Cl)ccc2C(=O)NC12CCN(C(=O)Nc1ccc(C)cc1C)CC2	968
COC(=O)c1ncn2c1C(=O)N(c1ccc(C(C)C)cc1)C(C)(C(=O)NC1CCCC1)C2 (centres undefined)	817
COc1ccc(C2(CNC(=O)CCc3c(C)noc3C)CCOCC2)cc1	660
CCOC(=O)C1CCN(C(=O)c2sc(Nc3ccc(F)cn3)nc2C)CC1	771
Cc1cccc(C)c1Nc1c(-c2ccccc2)nc2ncccn12	786
COCCNC(=O)C1CCCN(c2nccc(C)n2)C1 (centres undefined)	584
O=C(CC1CCCC1)NCCC1CCN(C(=O)Nc2ccc(F)cc2F)CC1	812
CC(=O)Nc1cccc(N2CC(C(=O)NC3CCCCCCC3)CC2=O)c1 (centres undefined)	731
Cc1ccc(NC(=O)CN2C(=O)C3CCCCN3c3ccc(S(=O)(=O)N(C)C)cc32)cc1C (centres undefined)	922
CCC(=O)N1CCCC1c1nc2ccccc2n1CC(=O)N1CCCC1 (centres undefined)	584

Now from value to compound:

RP-LC retention time [s]	Structure (SMILES)
1000	CCN1C(=O)COc2ccc(-c3noc(Cc4ccc(OC)cc4)n3)cc21
589	O=C(NCCN1CCOCC1)c1cccc(Nc2c(-c3ccccc3)nc3cnccn23)c1
837	O=C(c1ccc(F)cc1Cl)N1CCN(c2cc(-c3ccc(F)cc3)[nH]n2)CC1
842	Cc1ccc2[nH]cc(CCN3CC(C(=O)Nc4cccc(F)c4)CC3=O)c2c1 (centres undefined)
677	CN(C)c1cccc(-c2nc(-c3cn(Cc4cccc(F)c4)nn3)no2)c1
1170	O=C(NCc1ccccc1)c1cc2sccc2n1Cc1ccc(Cl)cc1
734	OC(COc1ccc(F)cc1)CN1CCN(c2cccc(Cl)c2)CC1 (centres undefined)
988	CCN1C(=O)C(C)(C(=O)Nc2ccc(F)c(Cl)c2)Oc2cccnc21 (centres undefined)
872	O=C(NCCc1csc(-c2cccs2)n1)C1CCN(S(=O)(=O)c2ccccc2F)CC1
981	COc1cccc(-c2noc(CN3C(=O)COc4ccc(C)cc43)n2)c1OC
703	CCN1CCN(CC(=O)N2N=C(c3cccs3)CC2c2ccc(F)cc2)C(=O)C1=O (centres undefined)
1080	Cc1cc(=O)n(CC(=O)Nc2ccc(Cl)cc2)c(-c2ccccc2)n1
786	O=C(OCc1cc(-c2cccs2)on1)c1cc(-c2ccco2)n[nH]1
882	CCc1nn2c(CNC(=O)c3cccn3C)c(-c3ccccc3)nc2s1
825	CC(C)n1nnc2ccc(-c3noc(CNC(=O)c4ccccc4)n3)cc21
580	Cc1cc(-c2csc(S(=O)(=O)NCCCN3CCN(C)CC3)c2)on1
620	O=C(Nc1nnc(C2CC(=O)N(c3ccccc3)C2)o1)c1ccccn1 (centres undefined)
812	CC(C)Cn1cc(CCNC(=O)Nc2ccc(F)cc2)c2cccnc21
684	O=C(Nc1c(-c2ccc(F)cc2)nc2ccccn12)c1cccc([N+](=O)[O-])c1
738	COc1ccc(-c2nnc(COc3ccc(NC(=O)c4ccoc4)cc3)o2)cc1
1050	Cc1nc(-c2cn(C)c3ncccc23)sc1C(=O)Nc1ccc(F)cc1Cl

RP-LC retention time [s]	Structure (SMILES)
620	CN(C)CCNC(=O)Cn1ncn2nc(-c3ccccc3)cc2c1=O
1230	CC(C)n1c(=O)c2ccccc2n(Cc2nc(-c3cccc(C(F)(F)F)c3)no2)c1=O
1110	Cc1cc2nn(CC(=O)N(C)C3CCCCC3)c(=O)n2c(Nc2ccccc2C)n1
1120	Cc1ccc(-c2nnc(-c3nc(NCCc4cccs4)c4ccccc4n3)o2)cc1
1090	CCOc1ccccc1-n1nnc(C(=O)OCc2nc(-c3ccccc3)oc2C)c1C
767	Cn1cccc1C(=O)NCCn1c(=O)n(Cc2ccccc2)c2cccnc21
1030	O=C(Nc1nc2c(s1)COc1ccccc1-2)c1cc(Cl)ccc1Cl
1030	Cc1cc(C)cc(OCc2nc(CCN(C)C(=O)COc3ccccc3)no2)c1
563	COc1cc(NC(=O)NCC(c2cccn2C)N2CCOCC2)cc(OC)c1 (centres undefined)
700	COc1cc(C2OC(c3cccnc3)=NN2C(C)=O)cc(OC)c1OC (centres undefined)
612	O=C(O)c1nnn(-c2ccc(F)cc2)c1-c1ccncc1
1000	C=CCN(c1ccccc1)c1nc(C(=O)OCC)nc2ccccc12
688	Cn1c(=O)n([C@@H]2CCN(C(=O)c3ccc4c(c3)OCO4)C2)c2ncccc21
1210	CCOc1ccc(NC(=O)c2cc3oc(C)cc3n2Cc2ccc(C)cc2)cc1
1100	CCc1nc(-c2csc(S(=O)(=O)N3CCCC(C(=O)Nc4ccc(C)cc4Cl)C3)c2)no1 (centres undefined)
838	O=C(Nc1cc(Cl)cc(Cl)c1)N1CC(Cc2nc(-c3cnccn3)no2)C1
635	Cn1cc(S(=O)(=O)NCc2cccs2)c(=O)n(C)c1=O
953	Cc1ccnc(Nc2nc(-c3cc(C)c(C)cc3C)cs2)c1
812	CCc1nc(-c2c(C)cc(C)nc2NC(=O)c2ccc(F)cc2)no1
986	Cc1ccc(C)c(N2CCN(C(=O)c3cc(C)n4nccc4n3)CC2)c1

Source: the METLIN SMRT retention time set (Domingo-Almenara et al. 2019)
